Here are results for 27 compounds from US7709471B2, “Compounds” (AstraZeneca AB, priority 2006, dated 2010).

Structures are written as SMILES.

In one experiment the target is recombinant Plk1 (Homo sapiens, UniProt P53350). Nature of the experiment: In Vitro Plk1 Enzyme Assay (SPA, GST-Cdc25C phosphorylation). The experiment is classed as biochemical. The conditions noted are these: ATP 64 nM, 90 minutes, read-out: IC50 (Plk1 enzyme inhibition).
For experiment [1], the system named is human colon tumour cell line HT29. Put plainly: Cellular Assay (phosphohistone H3 Ser10 mitotic marker, HT29). It is filed as cell-based. The note with it: HT-29, 24 h, HT29 cells, read-out: IC50 (cellular assay, phosphohistone H3).
Procedure: Chromosome condensation in mitosis is accompanied by phosphorylation of histone H3 on serine 10.
After 24 hours, cells were fixed in 3.7% (v/v) formaldehyde then permeabilised and blocked for 10 minutes in 100 μl 0.5% (v/v) Triton X-100, 1% (w/v) bovine serum albumin (BSA) in phosphate buffered saline (PBS). […] The raw assay data were analysed by non-linear regression analysis and used to determine an IC50 value for each compound.

recombinant Plk1, sequence (P53350 whole entry): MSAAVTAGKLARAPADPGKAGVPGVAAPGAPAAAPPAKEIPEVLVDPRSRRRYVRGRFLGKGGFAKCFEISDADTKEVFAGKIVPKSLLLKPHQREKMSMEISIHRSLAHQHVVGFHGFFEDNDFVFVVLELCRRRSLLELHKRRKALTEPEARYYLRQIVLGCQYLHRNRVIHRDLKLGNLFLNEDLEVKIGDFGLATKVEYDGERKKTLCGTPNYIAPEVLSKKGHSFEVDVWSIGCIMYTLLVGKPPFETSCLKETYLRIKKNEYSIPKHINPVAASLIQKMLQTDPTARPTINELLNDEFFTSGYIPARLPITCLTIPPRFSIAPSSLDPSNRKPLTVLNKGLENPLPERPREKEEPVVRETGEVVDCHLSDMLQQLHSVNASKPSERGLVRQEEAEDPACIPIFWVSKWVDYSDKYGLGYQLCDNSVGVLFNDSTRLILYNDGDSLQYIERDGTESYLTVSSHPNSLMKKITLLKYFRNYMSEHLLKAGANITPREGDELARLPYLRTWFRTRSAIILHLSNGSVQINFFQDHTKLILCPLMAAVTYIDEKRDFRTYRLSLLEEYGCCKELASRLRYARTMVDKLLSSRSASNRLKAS

As usually defined, the IC50 is the midpoint of a concentration-inhibition curve. Take `CN1C(=O)CCN(C2CCCC2)c2nc(Nc3ccc(C#N)c(C(F)(F)F)c3)ncc21` [Example 116, 4-[(6-cyclopentyl-2-methyl-3-oxo-2,6,8,10-tetrazabicyclo[5.4.0]undeca-8,10,12-trien-9-yl)amino]-2-(trifluoromethyl)benzonitrile]: the IC50 at recombinant Plk1 was < 100000 nM.
On the same count and under the same terms, the same measure for `CCc1cccc(Nc2ncc3c(n2)N(C2CCCC2)CCC(=O)N3C)c1` [Example 166, 6-cyclopentyl-9-[(3-ethylphenyl)amino]-2-methyl-2,6,8,10-tetrazabicyclo[5.4.0]undeca-8,10,12-trien-3-one]: < 100000 nM; for `CCOc1ccccc1Nc1ncc2c(n1)N(C1CCCC1)CCC(=O)N2C` [Example 140, 6-cyclopentyl-9-[(2-ethoxyphenyl)amino]-2-methyl-2,6,8,10-tetrazabicyclo[5.4.0]undeca-8,10,12-trien-3-one]: < 100000 nM; for `COc1cc(C(=O)NCCN2CCCCC2)ccc1Nc1ncc2c(n1)N(C1CCCC1)CCC(=O)N2C` [Example 12, 4-[(6-cyclopentyl-2-methyl-3-oxo-2,6,8,10-tetrazabicyclo[5.4.0]undeca-8,10,12-trien-9-yl)amino]-3-methoxy-N-[2-(1-piperidyl)ethyl]benzamide]: < 1000 nM.
Still for that read-out and setting: then `CN(C)CCOc1ccc(Nc2ncc3c(n2)N(C2CCCC2)CCC(=O)N3C)cc1` [Example 118, 6-cyclopentyl-9-[[4-(2-dimethylaminoethoxy)phenyl]amino]-2-methyl-2,6,8,10-tetrazabicyclo[5.4.0]undeca-8,10,12-trien-3-one], with < 100000 nM; and `COc1cc(C(=O)N[C@@H]2CC[C@H](C(=O)O)C2)ccc1Nc1ncc2c(n1)N(C1CCCC1)CCC(=O)N2C` [Example 87, (1S,3R)-3-[[4-[(6-cyclopentyl-2-methyl-3-oxo-2,6,8,10-tetrazabicyclo[5.4.0]undeca-8,10,12-trien-9-yl)amino]-3-methoxy-benzoyl]amino]cyclopentane-1-carboxylic acid], with < 300 nM.
With `COc1cc(C(=O)NC2CCN(C)CC2)ccc1Nc1ncc2c(n1)N(Cc1c(C)noc1C)CCC(=O)N2C` [Example 273, 4-[[2-[(3,5-dimethyl-1,2-oxazol-4-yl)methyl]-6-methyl-5-oxo-2,6,9,11-tetrazabicyclo[5.4.0]undeca-7,9,11-trien-10-yl]amino]-3-methoxy-N-(1-methyl-4-piperidyl)benzamide], at recombinant Plk1, the IC50 is < 100000 nM.
As to `CN1CCC(NC(=O)c2csc(Nc3ncc4c(n3)N(C3CCCC3)CCC(=O)N4C)n2)CC1` [Example 261, 2-[(6-cyclopentyl-2-methyl-3-oxo-2,6,8,10-tetrazabicyclo[5.4.0]undeca-8,10,12-trien-9-yl)amino]-N-(1-methyl-4-piperidyl)1,3-thiazole-4-carboxamide], at recombinant Plk1, the IC50 was < 100000 nM.
The same measure, in the same setting: then `COc1cc(Nc2ncc3c(n2)N(C2CCCC2)CCC(=O)N3C)cc(OC)c1OC` [Example 129, 6-cyclopentyl-2-methyl-9-[(3,4,5-trimethoxyphenyl)amino]-2,6,8,10-tetrazabicyclo[5.4.0]undeca-8,10,12-trien-3-one], with < 1000 nM; and `CNC(=O)c1ccc(Nc2ncc3c(n2)N(C2CCCC2)CCC(=O)N3C)c(OCCOC)c1` [Example 196, 4-[(6-cyclopentyl-2-methyl-3-oxo-2,6,8,10-tetrazabicyclo[5.4.0]undeca-8,10,12-trien-9-yl)amino]-3-(2-methoxyethoxy)-N-methyl-benzamide], with < 1000 nM.
On the same count and under the same terms, then `CSc1ccccc1Nc1ncc2c(n1)N(C1CCCC1)CCC(=O)N2C` [Example 141, 6-cyclopentyl-2-methyl-9-[(2-methylsulfanylphenyl)amino]-2,6,8,10-tetrazabicyclo[5.4.0]undeca-8,10,12-trien-3-one], with < 100000 nM; and `COc1cc(C(=O)NCCN2CCOCC2)ccc1Nc1ncc2c(n1)N(C1CCCC1)CCC(=O)N2` [Example 250, 4-[(6-cyclopentyl-3-oxo-2,6,8,10-tetrazabicyclo[5.4.0]undeca-8,10,12-trien-9-yl)amino]-3-methoxy-N-(2-morpholin-4-ylethyl)benzamide], with < 1000 nM; and `COc1cc(C(=O)NC2CCN(C)CC2)ccc1Nc1ncc2c(n1)N(c1ccccc1)CCC(=O)N2` [Example 251, 3-methoxy-N-(1-methyl-4-piperidyl)-4-[(3-oxo-6-phenyl-2,6,8,10-tetrazabicyclo[5.4.0]undeca-8,10,12-trien-9-yl)amino]benzamide], with < 100000 nM.
On the same count and under the same terms, the same measure for `COc1cc(C(=O)NC2CCCCC2)ccc1Nc1ncc2c(n1)N(CCN1CCCCC1)CCC(=O)N2C` [Example 276, N-cyclohexyl-3-methoxy-4-[[6-methyl-5-oxo-2-[2-(1-piperidyl)ethyl]-2,6,9,11-tetrazabicyclo[5.4.0]undeca-7,9,11-trien-10-yl]amino]benzamide]: < 100000 nM; for `COc1ccc(Nc2ncc3c(n2)N(C2CCCC2)CCC(=O)N3C)cc1` [Example 120, 6-cyclopentyl-9-[(4-methoxyphenyl)amino]-2-methyl-2,6,8,10-tetrazabicyclo[5.4.0]undeca-8,10,12-trien-3-one]: < 100000 nM.
Consider `COc1cc(C(=O)N[C@@H]2CCN(C)C2)c(F)cc1Nc1ncc2c(n1)N(C1CCCCC1)CC1(CC1)C(=O)N2C` [Example 438, 4-(9′-cyclohexyl-5′-methyl-6′-oxo-5′,6′,8′,9′-tetrahydrospiro[cyclopropane-1,7′-pyrimido[5,4-b][1,4]diazepine]-2′-ylamino)-2-fluoro-5-methoxy-N-[(3R)-1-methylpyrrolidin-3-yl]benzamide], for which the IC50 in experiment [1] is < 300 nM.
Same read-out and setting: the same measure for `CCN1CCC(NC(=O)c2cc(OC)c(Nc3ncc4c(n3)N(C(C)C)CC(CC)(CC)C(=O)N4C)cc2F)CC1` [Example 308, 4-[(4,4-diethyl-6-methyl-5-oxo-2-propan-2-yl-2,6,9,11-tetrazabicyclo[5.4.0]undeca-7,9,11-trien-10-yl)amino]-N-(1-ethyl-4-piperidyl)-2-fluoro-5-methoxy-benzamide]: < 300 nM; for `CCC1(CC)CN(C(C)C)c2nc(Nc3ccc(C(=O)NCC(C)(C)CN4CCCC4)cc3OC)ncc2N(C)C1=O` [Example 309, 4-[(4,4-diethyl-6-methyl-5-oxo-2-propan-2-yl-2,6,9,11-tetrazabicyclo[5.4.0]undeca-7,9,11-trien-10-yl)amino]-N-(2,2-dimethyl-3-pyrrolidin-1-yl-propyl)-3-methoxy-benzamide]: < 1000 nM; for `COc1cc(C(=O)NC2CCC(N3CCCC3)CC2)ccc1Nc1ncc2c(n1)N(C1CCCC1)CC(C)(C)C(=O)N2C` (stereo not drawn) [Example 360, 4-[(2-cyclopentyl-4,4,6-trimethyl-5-oxo-2,6,9,11-tetrazabicyclo[5.4.0]undeca-7,9,11-trien-10-yl)amino]-3-methoxy-N-(4-pyrrolidin-1-ylcyclohexyl)benzamide]: < 300 nM.
Still for that read-out and setting: the same measure for `CCN1CCC(NC(=O)c2cc(Cl)c(Nc3ncc4c(n3)N(C(C)C)CC(C)(C)C(=O)N4C)cc2F)CC1` [Example 290, 5-chloro-N-(1-ethyl-4-piperidyl)-2-fluoro-4-[(4,4,6-trimethyl-5-oxo-2-propan-2-yl-2,6,9,11-tetrazabicyclo[5.4.0]undeca-7,9,11-trien-10-yl)amino]benzamide]: < 1000 nM; for `CN1C(=O)CCN(C2CCCC2)c2nc(Nc3cccc(-c4ccccc4)c3)ncc21` [Example 171, 6-cyclopentyl-2-methyl-9-[(3-phenylphenyl)amino]-2,6,8,10-tetrazabicyclo[5.4.0]undeca-8,10,12-trien-3-one]: < 30000 nM.
For `COc1cc(C(=O)NC2C[C@H]3CCC[C@@H](C2)N3C)ccc1Nc1ncc2c(n1)N(C1CCCCC1)CCC(=O)N2C` (stereo partly drawn) [Example 418, 4-[(2-cyclohexyl-6-methyl-5-oxo-2,6,9,11-tetrazabicyclo[5.4.0]undeca-7,9,11-trien-10-yl)amino]-3-methoxy-N-[(1R,5S)-9-methyl-9-azabicyclo[3.3.1]non-7-yl]benzamide], in experiment [1], the IC50 was < 300 nM.
On the same count and under the same terms, then `CN1C(=O)C(C)(C)CN(C2CCCC2)c2nc(Nc3cc(F)c(C(=O)NC4CCC(N(C)C)CC4)cc3Cl)ncc21` (stereo not drawn) [Example 366, 5-chloro-4-[(2-cyclopentyl-4,4,6-trimethyl-5-oxo-2,6,9,11-tetrazabicyclo[5.4.0]undeca-7,9,11-trien-10-yl)amino]-N-(4-dimethylaminocyclohexyl)-2-fluoro-benzamide], with < 300 nM.
On the same count and under the same terms, then `COc1cc(C(=O)NCCCN(C)C)ccc1Nc1ncc2c(n1)N(C(C)C)CC(C)(C)C(=O)N2C` [Example 303, N-(3-dimethylaminopropyl)-3-methoxy-4-[(4,4,6-trimethyl-5-oxo-2-propan-2-yl-2,6,9,11-tetrazabicyclo[5.4.0]undeca-7,9,11-trien-10-yl)amino]benzamide], with < 300 nM.
On the same count and under the same terms, the same measure for `CCN1CCC(NC(=O)c2cc(OC)c(Nc3ncc4c(n3)N(C3CCCC3)CCC(=O)N4C)cc2Cl)CC1` [Example 337, 2-chloro-4-[(2-cyclopentyl-6-methyl-5-oxo-2,6,9,11-tetrazabicyclo[5.4.0]undeca-7,9,11-trien-10-yl)amino]-N-(1-ethyl-4-piperidyl)-5-methoxy-benzamide]: < 300 nM; for `CN1C(=O)C2(CC2)CN(C2CCCC2)c2nc(Nc3cc(F)c(C(=O)NC4CCC(N(C)C)CC4)cc3Cl)ncc21` (stereo not drawn) [Example 394, 5-chloro-4-(9′-cyclopentyl-5′-methyl-6′-oxo-5′,6′,8′,9′-tetrahydrospiro[cyclopropane-1,7′-pyrimido[5,4-b][1,4]diazepine]-2′-ylamino)-N-(4-dimethylaminocyclohexyl)-2-fluoro-benzamide]: < 300 nM; for `CCOc1cc(C(=O)N[C@@H]2CCN(C)C2)c(F)cc1Nc1ncc2c(n1)N(C(C)C)CC(C)(C)C(=O)N2C` [Example 297, 5-ethoxy-2-fluoro-N-[(3R)-1-methylpyrrolidin-3-yl]-4-[(4,4,6-trimethyl-5-oxo-2-propan-2-yl-2,6,9,11-tetrazabicyclo[5.4.0]undeca-7,9,11-trien-10-yl)amino]benzamide]: < 30000 nM.
